The record followed here is patent US8575382B2, “Low molecular weight pharmacological activity modulators” (“Ivy Pharm” LLC, priority 2009, dated 2013).

Data set [1] has as its system A431 line human epidermoid carcinoma cells. Put plainly: Proliferative activity and death of A431 cells (cell count, propidium iodide flow cytofluorimetry). Format: cell-based.
The test system is the same in data set [2]. The data set is described as above. Format: cell-based. Conditions: for Proportion of dead cells / Total cells: A431; for effect on the proliferative activity of A431 cells (in words): summary of Table 2. The protocol:
The number of living and dead cells in a culture was determined after 24 and 48 hours.
A431 line human epidermoid carcinoma cells, obtained from the All-Russian Cell Culture Collection (Russian Academy of Sciences Institute of Cytology, St. Petersburg).
Cells are cultured in a CO2 incubator (New Brunswick Scientific) at +37° C. and with a CO2 content of 5%. Cells are grown in these conditions to a monolayer culture and are exposed to the action of the test compounds.
The DMEM medium (OOO PanEko, Moscow) with the addition of gentamicin K (80 mg/l), L-glutamine (300 mg/l) and fetal serum (PAA, Austria) to a final concentration of 10%, is used for culturing cells. Cells are transferred to a medium with a reduced serum content of 0.5% 24 hours before commencing an experiment.
The cells were then suspended by pipetting with an automatic pipette and were combined with the previously collected medium. Samples were centrifuged at room temperature for 5 min at 400 g, the supernatant was removed and the deposit was resuspended in pH 7.4 PBS phosphate-salt buffer.
Propidium iodide was added to a suspension of cells to a concentration of 50 μg/ml 5-10 min before measuring in a Bruker ACR 1000 flow cytofluorimeter. This stain is able to penetrate through a damaged cell membrane, and stained cells are dead.

Data set [3] is described as follows: Solubility of the crystalline coordination compound. Format: physicochemical. The protocol:
[drawing 10] […] (1.811 mmole) of AgNO3, dissolved in the minimum amount of water, are added to a suspension of 300 mg (0.904 mmole) of Pd(2,2′-dipy)Cl2 in 15 ml of water. The mixture is acidified with 0.5 ml of concentrated HNO3, homogenized in an ultrasound bath for 15 min and filtered. […] (0.905 mmole) of L-cysteine (cys), dissolved in the minimum amount of water, are added to the filtrate. The reaction mixture is evaporated in air at room temperature. […] Yield 70-75%.

[4] abbreviates: AG1478 0.75 μg/ml 15 min before EGF 200 ng/ml, 24 hours.
The mark [5] stands for this setting: AG1478 0.75 μg/ml 15 min before EGF 200 ng/ml, 48 hours.
[6] abbreviates: AG1478 1.0 μg/ml 15 min before EGF 200 ng/ml, 24 hours.
The mark [7] stands for this setting: AG1478 1.0 μg/ml 15 min before EGF 200 ng/ml, 48 hours.
Setting [8] is: AG1478 2.5 μg/ml 15 min before EGF 200 ng/ml, 24 hours.
The mark [9] stands for this setting: AG1478 2.5 μg/ml 15 min before EGF 200 ng/ml, 48 hours.
Setting [10] is: AG1478 5.0 μg/ml 15 min before EGF 200 ng/ml, 24 hours.
Where [11] appears, read: AG1478 5.0 μg/ml 15 min before EGF 200 ng/ml, 48 hours.
Where [12] appears, read: Table 2, age of culture 0 hours, cysteine […], C—Pd […], C—Pd:C […], EGF 200 ng/ml.
[13] abbreviates: Table 2, age of culture 24 hours, cysteine […], C—Pd […], C—Pd:C […], EGF 200 ng/ml.
Where [14] appears, read: Table 2, age of culture 48 hours, cysteine […], C—Pd […], C—Pd:C […], EGF 200 ng/ml.

For the compound `COc1cc2ncnc(Nc3cccc(Cl)c3)c2cc1OC` [AG1478, tyrphostin AG 1478], the Total cells turned out to be 10000 mL⁻¹ in data set [1] (AG1478 0.75 μg/ml 15 min before EGF 200 ng/ml, 0 hours); 48100 mL⁻¹ in data set [2] (setting [4]); 70800 mL⁻¹ in data set [2] (setting [5]); 10000 mL⁻¹ in data set [2] (AG1478 1.0 μg/ml 15 min before EGF 200 ng/ml, 0 hours); 47100 mL⁻¹ in data set [2] (setting [6]); 65700 mL⁻¹ in data set [2] (setting [7]). Further, the Total cells in data set [2] (AG1478 2.5 μg/ml 15 min before EGF 200 ng/ml, 0 hours) was 10000 mL⁻¹; in data set [2] (setting [8]), 39400 mL⁻¹; in data set [2] (setting [9]), 61100 mL⁻¹; in data set [2] (AG1478 5.0 μg/ml 15 min before EGF 200 ng/ml, 0 hours), 10000 mL⁻¹; in data set [2] (setting [10]), 6400 mL⁻¹; in data set [2] (setting [11]), 2100 mL⁻¹. The “Proportion of dead cells” value in data set [2] (setting [4]) is on record as 20%; in data set [2] (setting [5]), 25%; in data set [2] (setting [6]), 23%; in data set [2] (setting [7]), 23%; in data set [2] (setting [8]), 27%; in data set [2] (setting [9]) it was 30%. For the same compound, the “Proportion of dead cells” value in data set [2] (setting [10]) came out at 29%; in data set [2] (setting [11]), 41%.

With `N[C@@H](CS)C(=O)O` [Cysteine, cysteine], the Total cells was 10000 mL⁻¹ in data set [1] (setting [12]), 14700 mL⁻¹ in data set [2] (setting [13]) and 23500 mL⁻¹ in data set [2] (setting [14]). In addition, the “Proportion of dead cells” value in data set [2] (setting [13]) is on record as 11%; in data set [2] (setting [14]), 22%. The “effect on the proliferative activity of A431 cells (in words)” value in data set [2] is “no effect on stimulation of proliferative activity”.

Take “[Pd2(μ-S-L-Cys)(μ-S-L-CysH)(2,2′-dipy)2](NO3)3.4.5H2O [C—Pd]”: the Total cells in data set [1] (setting [12]) was 10000 mL⁻¹; in data set [2] (setting [13]), 32300 mL⁻¹; in data set [2] (setting [14]) it was 36100 mL⁻¹. Further, the solubility result in data set [3] (in acetone) is “virtually insoluble”; in data set [3] (in dichloromethane) it was “virtually insoluble”; in data set [3] (in ethanol), “less soluble”; in data set [3] (in water) it was “readily soluble”. Besides, the figures for the “Proportion of dead cells” value in data set [2] (setting [13]) and in data set [2] (setting [14]) were 8% and 12%, respectively. In data set [2], the “effect on the proliferative activity of A431 cells (in words)” value is “stimulates the proliferative activity”.
